The test system of series [1] is A2780. Nature of the series: Induction of apoptosis in human A2780 cells assessed as viable cells at 100 nM incubated for 96 hrs by Annexin-V/FITC and PI staining based flow cytometry analysis (reference value: 89.2%). The following applies: read-out: Activity. It is filed as functional. (In flow cytometry, cells or beads pass a laser one at a time.)
Series [2] relates to A2780. Description: Inhibition of mitochondrial transcript in human A2780 cells assessed as decrease in CYTB expression by RT-qPCR analysis. In kind it is functional, cell-based.
The nature of series [3]: AUC (0 to t) in ICR mouse at 1 mg/kg, iv measured upto 24 hrs by LC-MS/MS analysis. In kind it is ADME, organism-based. The arrangement: time < 24 hrs, dose 1 mg/kg, route iv. The following applies: in vivo.
Series [4] concerns A2780. Description: Antitumor activity against human A2780 cells xenografted in BALB/c nude mouse model assessed as reduction in tumor weight at 100 mg/kg, po administered daily and measured after 27 days relative to control. In kind it is functional. The arrangement: scale not given: the % may be the effect or the level left. The note with it: time 27 day. (Xenograft models place foreign cells or tissue in a host animal.)

Series [5] relates to A2780. Description: Induction of intracellular ROS generation in human A2780 cells at upto 500 nM measured after 96 hrs by DCFH-DA staining based immunofluorescence assay. It is filed as functional, cell-based.
Series [6] has as its system A2780. Nature of the series: Downregulation of NDUFB8 level in human A2780 cells by Western blot analysis. The following applies: dose <= 500.0 nM. In kind it is functional, cell-based. Background: In western blotting, separated proteins are transferred to a membrane and probed.

By AUC(0-t) is commonly meant the area under the concentration-time curve up to a stated or last time point.

Activity calls are given as the source filed them. The rule behind the calls is not given here.

Consider `Cc1ccc(-c2cc(=O)oc3cc(O[C@H](C)C(=O)N4CC5CCC(C4)N5C)ccc23)c(C)c1`, for which the viability at 0.1 µM in series [1] was 90.2%. The inhibition entry in series [2] was “Active”. In series [3], this compound had an AUC(0-t) at 24 h of 424 ng·h/mL. Further, the results for the Activity in series [4] and in series [6] were 68.66% and “Dose-Dependent Effect”, respectively. Besides, the result in series [5] was inactive.

The values are drawn from ChEMBL document CHEMBL5380844, “Discovery of a Novel, Potent, Orally Active, and Safe Inhibitor Targeting Human Mitochondrial RNA Polymerase” (J Med Chem, 2023).
